# Measured values published in patent US12729377B2, “RNAi agents and compositions for inhibiting expression of angiopoietin-like 3 (ANGPTL3), and methods of use” (Arrowhead Pharmaceuticals, Inc., priority 2017, dated 2026).
# Tests used:
# Type in all cases: in vivo, LDLR KO mice
# ANGPTL3 protein = assay: Example 14: RNAi agent and statin, serum ANGPTL3 protein by ELISA in LDLR knockout mice; conditions: no injection
# From the text: (§1) To evaluate the effect of co-administration of RNAi agents and statins in a disease model, LDLR KO mice were commercially obtained (The Jackson Laboratory). For three weeks prior to the onset of the study, forty-one (41) male 7 to 8 week old LDLR KO mice were placed on a high fat (“western”) diet (Teklad Custom Diets TD.88137), and remained on that diet throughout the duration of the study. Pre-dose serum samples were taken on study Day 1 after a four hour fast. The dosing regimen for the study is recited in the following Table 72:
# (§2) • Mice were treated at 40 mg/kg for the first 11 days, then switched to 20 mg/kg thereafter.
# (§3) The vehicle used for the oral gavage in the study was a 1:1 mixture of Ora-Plus®: Ora-Sweet® solution, which were acquired commercially. For the preparation of the atorvastatin oral gavage administrations, the respective desired dose of atorvastatin was first dissolved in sterile water (0.3 mL water per 1 mL of desired formulation) and vortexed until smooth, followed by the addition of a mixture of 1:1 Ora-Plus®: Ora-Sweet® solution (0.7 mL vehicle per 1 mL of desired formulation) and vortexed. On day 1 and for each day thereafter an oral gavage dose was administered for each of the Groups except for Group 2. On Day 23, Groups 1, 2, 3, and 4 received a single subcutaneous administration of 2.5 mg/kg dose ([…] solution) of an ANGPTL3 RNAi agent in D5W (dextrose in 5% water), or vehicle control (D5W) with no RNAi agent.
# (§4) The RNAi agent tested (AD05488) included a modified sequence and an N-acetyl-galactosamine-containing targeting ligand conjugated to the 5′ terminal end of the sense strand. (See Tables 3, 4, and 5 for modified sequences and targeting ligand structures). The injections were performed between the skin and muscle (i.e. subcutaneous injections) into the loose skin over the neck and shoulder area. Serum was collected on days 8, 15, 22 (pre-RNAi agent injection), 29, 36, 43, and 50. LDLR KO mice were fasted for four hours prior to each collection.
# (§5) ANGPTL3 protein levels in serum were measured by ELISA assay (R&D Systems), according to the manufacturer's recommendations. Among other biomarkers, triglycerides, total cholesterol, and low-density lipoprotein (LDL) in serum were measured on a Cobas® Integra 400 (Roche Diagnostics), according to the manufacturer's recommendations.
# (§6) The ANGPTL3 protein levels, triglyceride levels, total cholesterol levels, HDL levels, and LDL levels for each animal were normalized. For normalization, respective levels of ANGPTL3 protein, TG, total cholesterol, or LDL for each animal at a time point was divided by the pre-treatment level of expression in that animal (in this case pre-dose levels on Day 1) to determine the ratio of expression “normalized to pre-treatment.” Data from the study set forth in this Example are shown in the following Tables 73-76: […]
# ANGPTL3 gene [1] = assay: Example 14: RNAi agent and statin, serum triglycerides in LDLR knockout mice; conditions: for Avg TG normalized to pre-treatment: no injection
# From the text: as §1, §2, §3, §4, §5, §6
# ANGPTL3 gene [2] = assay: Example 14: RNAi agent and statin, serum total cholesterol in LDLR knockout mice; conditions: for Avg Total Chol normalized to pre-treatment: no injection
# From the text: as §1, §2, §3, §4, §5, §6
# ANGPTL3 gene [3] = assay: Example 14: RNAi agent and statin, serum LDL in LDLR knockout mice; conditions: for Avg LDL normalized to pre-treatment: no injection
# From the text: as §1, §2, §3, §4, §5, §6
# [4] = Group 5: 10 mg/kg daily oral gavage atorvastatin, Day 8
# [5] = Group 5: 10 mg/kg daily oral gavage atorvastatin, Day 15
# [6] = Group 5: 10 mg/kg daily oral gavage atorvastatin, Day 22
# [7] = Group 5: 10 mg/kg daily oral gavage atorvastatin, Day 29
# [8] = Group 5: 10 mg/kg daily oral gavage atorvastatin, Day 36
# [9] = Group 5: 10 mg/kg daily oral gavage atorvastatin, Day 43
# [10] = Group 5: 10 mg/kg daily oral gavage atorvastatin, Day 50
# [11] = Group 6: 20 mg/kg* daily oral gavage atorvastatin (40 mg/kg first 11 days), Day 8
# [12] = Group 6: 20 mg/kg* daily oral gavage atorvastatin (40 mg/kg first 11 days), Day 15
# [13] = Group 6: 20 mg/kg* daily oral gavage atorvastatin (40 mg/kg first 11 days), Day 22
# [14] = Group 6: 20 mg/kg* daily oral gavage atorvastatin (40 mg/kg first 11 days), Day 29
# [15] = Group 6: 20 mg/kg* daily oral gavage atorvastatin (40 mg/kg first 11 days), Day 36
# [16] = Group 6: 20 mg/kg* daily oral gavage atorvastatin (40 mg/kg first 11 days), Day 43
# [17] = Group 6: 20 mg/kg* daily oral gavage atorvastatin (40 mg/kg first 11 days), Day 50
# [18] = daily atorvastatin by oral gavage, LDLR KO mice on high fat diet
structure (smiles),measurement,setting,value
"CC(C)c1c(C(=O)Nc2ccccc2)c(-c2ccccc2)c(-c2ccc(F)cc2)n1CC[C@@H](O)C[C@@H](O)CC(=O)O [atorvastatin, reference compound]",Avg ANGPTL3 normalized to pre-treatment,ANGPTL3 protein; [4],1.577
same,Avg ANGPTL3 normalized to pre-treatment,ANGPTL3 protein; [5],1.839
same,Avg ANGPTL3 normalized to pre-treatment,ANGPTL3 protein; [6],1.693
same,Avg ANGPTL3 normalized to pre-treatment,ANGPTL3 protein; [7],1.764
same,Avg ANGPTL3 normalized to pre-treatment,ANGPTL3 protein; [8],1.851
same,Avg ANGPTL3 normalized to pre-treatment,ANGPTL3 protein; [9],1.758
same,Avg ANGPTL3 normalized to pre-treatment,ANGPTL3 protein; [10],1.878
same,Avg ANGPTL3 normalized to pre-treatment,ANGPTL3 protein; [11],1.553
same,Avg ANGPTL3 normalized to pre-treatment,ANGPTL3 protein; [12],1.924
same,Avg ANGPTL3 normalized to pre-treatment,ANGPTL3 protein; [13],1.871
same,Avg ANGPTL3 normalized to pre-treatment,ANGPTL3 protein; [14],1.767
same,Avg ANGPTL3 normalized to pre-treatment,ANGPTL3 protein; [15],1.981
same,Avg ANGPTL3 normalized to pre-treatment,ANGPTL3 protein; [16],1.935
same,Avg ANGPTL3 normalized to pre-treatment,ANGPTL3 protein; [17],1.847
same,Avg TG normalized to pre-treatment,ANGPTL3 gene [1]; [4],0.667
same,Avg TG normalized to pre-treatment,ANGPTL3 gene [1]; [5],0.601
same,Avg TG normalized to pre-treatment,ANGPTL3 gene [1]; [6],1.086
same,Avg TG normalized to pre-treatment,ANGPTL3 gene [1]; [7],0.803
same,Avg TG normalized to pre-treatment,ANGPTL3 gene [1]; [8],0.958
same,Avg TG normalized to pre-treatment,ANGPTL3 gene [1]; [9],0.862
same,Avg TG normalized to pre-treatment,ANGPTL3 gene [1]; [10],0.977
same,Avg TG normalized to pre-treatment,ANGPTL3 gene [1]; [11],0.477
same,Avg TG normalized to pre-treatment,ANGPTL3 gene [1]; [12],0.362
same,Avg TG normalized to pre-treatment,ANGPTL3 gene [1]; [13],0.505
same,Avg TG normalized to pre-treatment,ANGPTL3 gene [1]; [14],0.552
same,Avg TG normalized to pre-treatment,ANGPTL3 gene [1]; [15],0.598
same,Avg TG normalized to pre-treatment,ANGPTL3 gene [1]; [16],0.603
same,Avg TG normalized to pre-treatment,ANGPTL3 gene [1]; [17],0.677
same,reduction in triglycerides,ANGPTL3 gene [1]; [18],40-60%
same,Avg Total Chol normalized to pre-treatment,ANGPTL3 gene [2]; [4],0.821
same,Avg Total Chol normalized to pre-treatment,ANGPTL3 gene [2]; [5],0.774
same,Avg Total Chol normalized to pre-treatment,ANGPTL3 gene [2]; [6],0.980
same,Avg Total Chol normalized to pre-treatment,ANGPTL3 gene [2]; [7],0.943
same,Avg Total Chol normalized to pre-treatment,ANGPTL3 gene [2]; [8],1.105
same,Avg Total Chol normalized to pre-treatment,ANGPTL3 gene [2]; [9],0.998
same,Avg Total Chol normalized to pre-treatment,ANGPTL3 gene [2]; [10],0.987
same,Avg Total Chol normalized to pre-treatment,ANGPTL3 gene [2]; [11],0.586
same,Avg Total Chol normalized to pre-treatment,ANGPTL3 gene [2]; [12],0.620
same,Avg Total Chol normalized to pre-treatment,ANGPTL3 gene [2]; [13],0.767
same,Avg Total Chol normalized to pre-treatment,ANGPTL3 gene [2]; [14],0.761
same,Avg Total Chol normalized to pre-treatment,ANGPTL3 gene [2]; [15],0.825
same,Avg Total Chol normalized to pre-treatment,ANGPTL3 gene [2]; [16],0.767
same,Avg Total Chol normalized to pre-treatment,ANGPTL3 gene [2]; [17],0.807
same,reduction in total cholesterol,ANGPTL3 gene [2]; [18],23-40%
same,Avg LDL normalized to pre-treatment,ANGPTL3 gene [3]; [4],0.778
same,Avg LDL normalized to pre-treatment,ANGPTL3 gene [3]; [5],0.695
same,Avg LDL normalized to pre-treatment,ANGPTL3 gene [3]; [6],0.861
same,Avg LDL normalized to pre-treatment,ANGPTL3 gene [3]; [7],0.881
same,Avg LDL normalized to pre-treatment,ANGPTL3 gene [3]; [8],0.996
same,Avg LDL normalized to pre-treatment,ANGPTL3 gene [3]; [9],0.929
same,Avg LDL normalized to pre-treatment,ANGPTL3 gene [3]; [10],0.872
same,Avg LDL normalized to pre-treatment,ANGPTL3 gene [3]; [11],0.490
same,Avg LDL normalized to pre-treatment,ANGPTL3 gene [3]; [12],0.556
same,Avg LDL normalized to pre-treatment,ANGPTL3 gene [3]; [13],0.687
same,Avg LDL normalized to pre-treatment,ANGPTL3 gene [3]; [14],0.700
same,Avg LDL normalized to pre-treatment,ANGPTL3 gene [3]; [15],0.716
same,Avg LDL normalized to pre-treatment,ANGPTL3 gene [3]; [16],0.689
same,Avg LDL normalized to pre-treatment,ANGPTL3 gene [3]; [17],0.687
same,reduction in LDL,ANGPTL3 gene [3]; [18],30-45%
